Assay results published in PubChem BioAssay (NCI).
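The compound was tested at five concentrations on cells cultured in 96-well plates, with a 48-hour exposure period. TGI denotes the concentration required for complete inhibition of growth.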

System: RXF-631 renal
Test: NCI tumour cell line growth inhibition, 48 h

Question: `O=c1[nH]nc2c3n[nH]c(=O)n3c3ccccc3n12` was tested. Which TGI did it give?
Answer: > 100 µM

Question: Which TGI does the source give for `CC1(Br)C(=O)NC(=O)N([C@H]2C[C@H](O)[C@@H](CO)O2)C1N=[N+]=[N-]` (stereo not given in full) here?
Answer: > 100 µM

Question: For `CCCC/C=C1\CCC(CN2CCOCC2)C1=O` (stereo not given), which TGI is on record?
Answer: 29.2 µM

Question: Which TGI does the source give for `COc1cc([C@@H]2c3cc4c(cc3[C@@H](NC(=O)c3ccc(C(C)=O)cc3)C3COC(=O)[C@@H]32)OCO4)cc(OC)c1O` (stereo not given in full) here?
Answer: 10.6 µM

Question: `CN1C(=O)c2cccc3c([N+](=O)[O-])ccc(c23)C1=O` was tested. Which TGI did it give?
Answer: 17.6 µM
